Data published in publication PMC8592419 (PLoS ONE, 2021).
Values after ≈ are worked out from the molar mass of the structure shown. Where a SMILES comes first, the peptide text is derived from it.

Tests used:
[1] = system: M. abscessus clinical isolate MAB03; assay: microbe, parasite or virus in culture; type: cell-based, M. abscessus subsp. abscessus; conditions: MAB03
Method: (§1) Mab suspensions at a 5×10^5 CFU/ml final concentration were added to each well and incubated for 3 days and 14 days at 37°C. MIC values were defined when the percent killing of CFUs of more than 90% were compared to the media controls without AMPs or drugs. The fraction inhibitory concentration index (FICI) was calculated using the following formula: FICI = [C(MIC^A)/MIC^A] + [C(MIC^B)/MIC^B]. […] For interpretation, FICI ≤ 0.5 was interpreted as synergism, FICI >0.5–1.0 was interpreted as additive, FICI >1.0–4.0 was interpreted as indifferent and FICI >4.0 was interpreted as antagonism.

[2] = system: M. abscessus clinical isolate MAB11; assay: microbe, parasite or virus in culture; type: cell-based, M. abscessus subsp. abscessus; conditions: MAB11
Method: as §1

[3] = system: M. abscessus clinical isolate MAB07; assay: microbe, parasite or virus in culture; type: cell-based, M. abscessus subsp. abscessus; conditions: MAB07
Method: as §1

[4] = system: M. abscessus clinical isolate MAB05; assay: microbe, parasite or virus in culture; type: cell-based, M. abscessus subsp. abscessus; conditions: MAB05
Method: as §1

[5] = system: M. abscessus clinical isolate MAB01; assay: microbe, parasite or virus in culture; type: cell-based, M. abscessus subsp. abscessus; conditions: MAB01; AMP + CLA; mean ± S.D., two independent experiments
Method: as §1

[6] = system: M. abscessus clinical isolate MAB02; assay: microbe, parasite or virus in culture; type: cell-based, M. abscessus subsp. abscessus; conditions: MAB02
Method: as §1

[7] = system: M. abscessus clinical isolate MAB09; assay: microbe, parasite or virus in culture; type: cell-based, M. abscessus subsp. abscessus; conditions: MAB09
Method: as §1

[8] = system: M. abscessus clinical isolate MAB10; assay: microbe, parasite or virus in culture; type: cell-based, M. abscessus subsp. abscessus; conditions: MAB10
Method: as §1

[9] = system: M. abscessus clinical isolate MAB06; type: cell-based, M. abscessus subsp. abscessus; conditions: 3 days at 37°C
Method: (§2) Briefly, serial dilutions of the AMPs were prepared with potassium phosphate buffer (PPB) from the concentration range of 3.125 to 400 μg/ml and then 50 μl of each dilution were added to each 96-well plate. Colonies of the isolate were suspended and then further diluted in Mueller-Hinton broth to obtain a final concentration of 1×10^3 CFU/ml (optimized according to the available AMP stock concentration). Fifty microliters of this inoculum were added to each well of the plates. The plates were incubated for 3 days at 37°C. Plain media and bacterial suspensions without AMPs were used as negative and positive controls. The MIC values were read and recorded. All assays were performed in duplicate and two independent experiments.
(§3) For the in vitro antimicrobial susceptibility, the same protocol as described above was used. The culture plates were further incubated up to 3 days at 37°C. The MIC values were read and recorded.

[10] = system: clinical isolates of M. abscessus; assay: In vitro susceptibility of potential AMPs, 3 days, summary over isolates; type: cell-based, Mycobacterium abscessus; conditions: isolates MAB01 and MAB03
Method: as §2, §3

[11] = system: Mab ATCC19977 strain; type: cell-based, Mycobacterium abscessus
Procedure, shortened: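 AMPs were serially diluted in potassium phosphate buffer over 3.125–400 μg/ml (pre-mixing concentrations) and combined with an equal volume of isolate inoculum in Mueller-Hinton broth at 1×10^3 CFU/ml. After 3 days at 37 °C the MIC was read; runs were in duplicate across two independent experiments.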

[12] = system: M. abscessus clinical isolate MAB04; assay: In vitro antimicrobial susceptibility of potential AMPs, broth microdilution, 3 days; type: cell-based, M. abscessus subsp. abscessus; conditions: 3 days at 37°C
Method: as §2, §3

[13] = system: M. abscessus clinical isolate MAB08; assay: as above; type: cell-based, M. abscessus subsp. abscessus; conditions: 3 days at 37°C
Method: as §2, §3

[14] = system: human peripheral blood mononuclear cells (PBMCs); assay: PBMC toxicity, trypan blue exclusion assay; type: cell-based; conditions: 1 h at 37°C, mean±SD of duplicates, two independent experiments
Method: For the toxicity of the potential AMPs to human peripheral blood mononuclear cells (PBMCs), the trypan blue exclusion assay was used. Fresh human PBMCs were prepared from blood samples of healthy volunteers using the Ficoll density gradient technique. The cells were centrifuged at 1,800 rpm for 20 min at 20°C and washed three times with PBS and adjusted with RPMI-1640 medium into 6.25×10^5 cells/ml. Fifty microliters of PBMC suspension and 50 μl of AMP solutions (6.25–400 μg/ml) were added to the 96-well microtiter plates and incubated for 1 h at 37°C. Then, 20 μl of the samples were mixed with 20 μl of 0.4% (w/v) trypan blue solution (0.81% NaCl and 0.06% (w/v) dibasic potassium phosphate) in microtubes and incubated for 3 min at room temperature. The PBMC suspensions treated with PBS were used as negative controls. PBMCs were counted using a dual-chamber hemocytometer under a light microscope. Viable and non-viable cells were counted under a microscope and the percentage of viable cells was calculated using the following formula: % of viable cells = [1.00 –([…] / Number of total cells)] × 100. All assays were performed in duplicate with two independent experiments.

[15] = system: M. abscessus clinical isolate MAB13; type: cell-based, M. abscessus subsp. massiliense; conditions: 3 days at 37°C
Method: as §2, §3

[16] = system: M. abscessus clinical isolate MAB14; assay: microbe, parasite or virus in culture; type: cell-based, M. abscessus subsp. massiliense; conditions: MAB14
Method: as §1

[17] = system: M. abscessus clinical isolate MAB12; assay: microbe, parasite or virus in culture; type: cell-based, M. abscessus subsp. massiliense; conditions: MAB12
Method: as §1

[18] = AMP + CLA, mean ± S.D., two independent experiments

CC[C@H](C)[C@H](NC(=O)[C@H](CCCCN)NC(=O)[C@H](CCCNC(=N)N)NC(=O)CNC(=O)[C@H](CC(C)C)NC(=O)[C@H](CO)NC(=O)[C@H](CCCNC(=N)N)NC(=O)[C@H](CC(C)C)NC(=O)CNC(=O)CN)C(=O)N[C@@H](CC(C)C)C(=O)N[C@@H](CCCNC(=N)N)C(=O)N[C@@H](C)C(=O)N[C@@H](Cc1c[nH]c2ccccc12)C(=O)N[C@@H](CCCCN)C(=O)N[C@@H](CCCCN)C(=O)N[C@@H](Cc1ccc(O)cc1)C(=O)O [S61] (H-GGLRSLGRKILRAWKKY-OH)
FICI [1, 18]: 0.28±0.00 | MIC, AMP alone ([1]; AMP alone): 6.25 µg/mL | FICI [2, 18]: 0.67±0.08 | MIC, AMP alone ([2]; AMP alone): >400 µg/mL | FICI [3, 18]: 0.03±0.00 | MIC, AMP alone ([3]; AMP alone): >400 µg/mL | FICI [4, 18]: 1.01±0.00 | MIC, AMP alone ([4]; AMP alone): >400 µg/mL | FICI [5]: 0.41±0.17 | FICI [6, 18]: 1.02±0.00 | MIC, AMP alone ([6]; AMP alone): >400 µg/mL | FICI [7, 18]: 1.01±0.00 | MIC, AMP alone ([7]; AMP alone): >400 µg/mL | FICI [8, 18]: 0.05±0.00 | MIC, AMP alone ([8]; AMP alone): >400 µg/mL | Antimicrobial peptides against M. abscessus isolates, MIC value [9]: >400 µg/mL | MIC values after 3 days [10]: 3.13 µM (≈ 6.27 µg/mL) | MIC values [11]: 200 µg/mL (≈ 99.9 µM) | Antimicrobial peptides against M. abscessus isolates, MIC value [12]: >400 µg/mL | Antimicrobial peptides against M. abscessus isolates, MIC value [13]: >400 µg/mL | Viable cells of PBMCs (% viable cells) ([14]; 6.25 µg/mL): 97.98±1.38% | Viable cells of PBMCs (% viable cells) ([14]; 12.5 µg/mL): 94.40±0.56% | Viable cells of PBMCs (% viable cells) ([14]; 25 µg/mL): 95.35±3.74% | Viable cells of PBMCs (% viable cells) ([14]; 50 µg/mL): 87.35±7.57% | Viable cells of PBMCs (% viable cells) ([14]; 100 µg/mL): 79.70±6.73% | Viable cells of PBMCs (% viable cells) ([14]; 200 µg/mL): 38.76±0.82% | Viable cells of PBMCs (% viable cells) ([14]; 400 µg/mL): 41.40±5.84% | Antimicrobial peptides against M. abscessus isolates, MIC value [15]: >400 µg/mL | FICI [16, 18]: 0.10±0.04 | MIC, AMP alone ([16]; AMP alone): >400 µg/mL | FICI [17, 18]: 1.01±0.00 | MIC, AMP alone ([17]; AMP alone): >400 µg/mL
